Test results: ChEMBL document CHEMBL1150037, “Calcineurin has a very tight-binding pocket for the side chain of residue 4 of cyclosporin” (1994)

How the values were obtained:
[1] = biological target: Peptidyl-prolyl cis-trans isomerase A (Rattus norvegicus) (UniProt P10111); assay: In vitro affinity towards cyclophilin A was determined under competitive ELISA systems using protein-conjugated ligand CsA
[2] = species on record: Mus musculus; assay: Immunosuppressive activity by mouse mixed lymphocyte reaction (MLR_M) relative to cyclosporin as 1; type: functional
[3] = Immunosuppressive activity with the help of a reporter gene assay for IL-2 (IL2-RGA) relative to cyclosporin as 1; type: functional

Peptidyl-prolyl cis-trans isomerase A (Rattus norvegicus), sequence (P10111 whole entry): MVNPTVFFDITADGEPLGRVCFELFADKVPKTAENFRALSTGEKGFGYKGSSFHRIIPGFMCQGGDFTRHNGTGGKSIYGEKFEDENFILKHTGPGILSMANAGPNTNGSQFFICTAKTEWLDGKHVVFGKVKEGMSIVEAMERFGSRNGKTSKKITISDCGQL

Relative IC50 [1]	Relative IC50 [2]	Relative IC50 [3]	Compound
2.8	5	5.3	C/C=C/C[C@@H](C)[C@@H](O)[C@H]1C(=O)N[C@@H](CC)C(=O)N(C)CC(=O)N(C)[C@@H](CC2CC2)C(=O)N[C@@H](C(C)C)C(=O)N(C)[C@@H](CC(C)C)C(=O)N[C@@H](C)C(=O)N[C@H](C)C(=O)N(C)[C@@H](CC(C)C)C(=O)N(C)[C@@H](CC(C)C)C(=O)N(C)C(C(C)C)C(=O)N1C (single isomer, unassigned)
1.8	1.6	4	C=C(C)C[C@H]1C(=O)N[C@@H](C(C)C)C(=O)N(C)[C@@H](CC(C)C)C(=O)N[C@@H](C)C(=O)N[C@H](C)C(=O)N(C)[C@@H](CC(C)C)C(=O)N(C)[C@@H](CC(C)C)C(=O)N(C)C(C(C)C)C(=O)N(C)[C@@H]([C@H](O)[C@H](C)C/C=C/C)C(=O)N[C@@H](CC)C(=O)N(C)CC(=O)N1C (single isomer, unassigned)
2.1	25	7	C/C=C/C[C@@H](C)[C@@H](O)[C@H]1C(=O)N[C@@H](CC)C(=O)N(C)CC(=O)N(C)[C@@H](CC(C)(C)F)C(=O)N[C@@H](C(C)C)C(=O)N(C)[C@@H](CC(C)C)C(=O)N[C@@H](C)C(=O)N[C@H](C)C(=O)N(C)[C@@H](CC(C)C)C(=O)N(C)[C@@H](CC(C)C)C(=O)N(C)[C@@H](C(C)C)C(=O)N1C
1.2	65	163	C/C=C/C[C@@H](C)[C@@H](O)[C@H]1C(=O)N[C@@H](CC)C(=O)N(C)CC(=O)N(C)[C@@H](CC)C(=O)N[C@@H](C(C)C)C(=O)N(C)[C@@H](CC(C)C)C(=O)N[C@@H](C)C(=O)N[C@H](C)C(=O)N(C)[C@@H](CC(C)C)C(=O)N(C)[C@@H](CC(C)C)C(=O)N(C)C(C(C)C)C(=O)N1C (single isomer, unassigned)
0.9	130	110	C/C=C/C[C@@H](C)[C@@H](O)[C@H]1C(=O)N[C@@H](CC)C(=O)N(C)CC(=O)N(C)[C@@H](CC(C)(C)O)C(=O)N[C@@H](C(C)C)C(=O)N(C)[C@@H](CC(C)C)C(=O)N[C@@H](C)C(=O)N[C@H](C)C(=O)N(C)[C@@H](CC(C)C)C(=O)N(C)[C@@H](CC(C)C)C(=O)N(C)[C@@H](C(C)C)C(=O)N1C
1.9	3.5	9	C/C=C/C[C@@H](C)[C@@H](O)[C@H]1C(=O)N[C@@H](CC)C(=O)N(C)CC(=O)N(C)[C@@H](CCC(C)C)C(=O)N[C@@H](C(C)C)C(=O)N(C)[C@@H](CC(C)C)C(=O)N[C@@H](C)C(=O)N[C@H](C)C(=O)N(C)[C@@H](CC(C)C)C(=O)N(C)[C@@H](CC(C)C)C(=O)N(C)C(C(C)C)C(=O)N1C (single isomer, unassigned)

Compound	Relative IC50 [1]	Relative IC50 [2]	Relative IC50 [3]
C/C=C/C[C@@H](C)[C@@H](O)[C@H]1C(=O)N[C@@H](CC)C(=O)N(C)CC(=O)N(C)[C@@H](C(C)C)C(=O)N[C@@H](C(C)C)C(=O)N(C)[C@@H](CC(C)C)C(=O)N[C@@H](C)C(=O)N[C@H](C)C(=O)N(C)[C@@H](CC(C)C)C(=O)N(C)[C@@H](CC(C)C)C(=O)N(C)C(C(C)C)C(=O)N1C (single isomer, unassigned)	0.5	130	2500
